Source: ChEMBL document CHEMBL3808352, “Pyrazolylamine Derivatives Reveal the Conformational Switching between Type I and Type II Binding Modes of Anaplastic Lymphoma Kinase (ALK)” (J Med Chem, 2016)

Assay: Lipophilicity, log P of the compound
Assay type: physicochemical
Conditions: octanol/water

logP	Compound
4.54	Cc1cc(-c2cc(NC(=O)c3ccc(CN4CCN(C)CC4)cc3)[nH]n2)ccc1NC(=O)Nc1cc(C(C)(C)C)on1
2.61	Cc1cc(-c2cc(NC(=O)c3ccc(CN4CCN(C)CC4)cc3)[nH]n2)ccc1N
